Experiment [1] concerns the target T1, wild-type (wt) human (h) P2X4 receptor (Homo sapiens, UniProt Q99571).
T1 construct: host or cells: Xenopus laevis oocytes injected with cRNA (pNKS2 vector)
The experiment in a line: Two-electrode voltage clamp (TEVC), wt hP2X4 in Xenopus laevis oocytes. It is filed as cell-based. As to conditions: TEVC at -60 mV. The procedure:
Xenopus laevis frogs were from Nasco International (Fort Atkinson, WI, USA) and kept at the Core Facility Animal Models (CAM) of the BMC of LMU Munich, Germany (Az: 4.3.2–5682/LMU/BMC/CAM) in accordance with the EU Animal Welfare Act. […] Fifty nanoliters of cRNA (0.5 µg/µL) were injected using a Nanoject II injector (Science Products, Drummond, USA) and oocytes were kept in ND96 (96 mM NaCl, 2 mM KCl, 1 mM MgCl2, 1 mM CaCl2, 5 mM HEPES, pH 7.4–7.5) supplemented with 5 μg/mL gentamicin at 16 °C.
cDNA encoding human P2X4 receptor (NM_002560.3) was obtained from BioCat GmbH (Heidelberg, Germany) and cloned into the pNKS2 vector[87] using Gibson Assembly (E2621L, New England Biolabs, USA) according to the manufacturer’s instructions. Point mutations were introduced by site-directed mutagenesis using KLD Enzyme Mix (M0554S, New England Biolabs, USA). All constructs were verified by full-length cDNA sequencing (Eurofins Genomics, Germany). Plasmids were linearized with NotI-HF (R3189S, New England Biolabs, USA) and purified using the MinElute Reaction Cleanup Kit (Qiagen, Hilden, Germany). […]
Statistical analysis was performed with GraphPad Prism version 10 software, and data are presented as means ± SEM. Data were assessed for normality using the Shapiro–Wilk test and for homogeneity of variances using Levene’s test. […]
Background: In two-electrode clamp one electrode senses voltage and the other passes current.

For experiment [2], the target named is T2, hP2X4-E307T receptor mutant (Homo sapiens, UniProt Q99571, E307T).
T2 construct: host or cells: Xenopus laevis oocytes injected with cRNA (pNKS2 vector)
T2 sequence (Q99571 1-388 E307T): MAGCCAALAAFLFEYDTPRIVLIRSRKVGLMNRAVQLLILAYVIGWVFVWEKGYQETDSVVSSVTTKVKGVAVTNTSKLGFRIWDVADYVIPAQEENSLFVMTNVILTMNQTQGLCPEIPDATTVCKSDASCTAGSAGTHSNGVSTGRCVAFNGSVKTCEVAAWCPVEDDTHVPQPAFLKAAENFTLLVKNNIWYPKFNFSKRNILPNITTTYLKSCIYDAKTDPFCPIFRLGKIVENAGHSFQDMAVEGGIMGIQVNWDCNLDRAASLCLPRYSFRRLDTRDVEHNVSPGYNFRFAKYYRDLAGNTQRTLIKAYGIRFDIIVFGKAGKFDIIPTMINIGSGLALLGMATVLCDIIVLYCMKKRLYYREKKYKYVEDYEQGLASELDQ
The experiment in a line: Two-electrode voltage clamp (TEVC), P2X4-E307T in Xenopus laevis oocytes. It is filed as cell-based. As to conditions: TEVC at -60 mV, Xenopus oocytes, P2X4-E307T.

For experiment [3], the target named is T3, chimeric P2X4(P2X2) receptor c10^R301-Q308 (Homo sapiens, UniProt Q99571, A304N/D302K/DEL301-301/E307T/L303I/N306T/Q308T).
T3 construct: expressed in transfected cells; gene synthesis (Geneart), pLVX-IRES-mCherry (bicistronic, mCherry not fused)
T3 sequence (Q99571 with tags, fused parts or gaps DEL301-301/D302K/L303I/A304N/N306T/E307T/Q308T): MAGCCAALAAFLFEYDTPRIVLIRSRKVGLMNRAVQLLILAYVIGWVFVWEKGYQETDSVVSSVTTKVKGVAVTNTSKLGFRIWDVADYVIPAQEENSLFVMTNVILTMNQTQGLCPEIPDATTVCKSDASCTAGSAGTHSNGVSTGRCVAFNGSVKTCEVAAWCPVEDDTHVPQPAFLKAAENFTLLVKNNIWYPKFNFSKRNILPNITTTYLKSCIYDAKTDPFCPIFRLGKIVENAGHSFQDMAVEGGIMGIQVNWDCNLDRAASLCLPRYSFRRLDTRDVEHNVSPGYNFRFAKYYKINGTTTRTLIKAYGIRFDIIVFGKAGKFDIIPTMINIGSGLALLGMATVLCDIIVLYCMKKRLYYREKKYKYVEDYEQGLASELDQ
Further details: method as in ref 19 (supplement). The following applies: read-out: ATP EC50, published value, ref 19 (supplement); cited from earlier work.

Experiment [4] deals with chimeric P2X4(P2X2) receptor c8^R265-L269 (Homo sapiens, UniProt Q99571, A266P/L269E/R265L). Briefly: cell-based.
In experiment [5] the target is T4, P2X4-Q308T receptor mutant (Homo sapiens, UniProt Q99571, Q308T).
T4 sequence (Q99571 1-388 Q308T): T2 sequence (Q99571 1-388 E307T) with T307E, Q308T
The experiment in a line: cell-based.

Positions count from the first letter of the chain named.

T1 sequence (Q99571 whole entry): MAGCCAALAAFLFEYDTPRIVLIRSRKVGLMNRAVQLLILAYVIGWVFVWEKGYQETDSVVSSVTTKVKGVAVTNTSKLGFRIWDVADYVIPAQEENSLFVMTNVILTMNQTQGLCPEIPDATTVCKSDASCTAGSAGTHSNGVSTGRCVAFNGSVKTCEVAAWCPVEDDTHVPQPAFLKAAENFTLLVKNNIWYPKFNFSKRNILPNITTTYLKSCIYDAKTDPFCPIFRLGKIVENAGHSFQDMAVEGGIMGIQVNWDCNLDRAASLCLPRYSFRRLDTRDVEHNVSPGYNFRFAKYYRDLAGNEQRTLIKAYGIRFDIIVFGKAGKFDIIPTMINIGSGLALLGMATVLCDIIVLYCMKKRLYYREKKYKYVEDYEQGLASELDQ
Chain of chimeric P2X4(P2X2) receptor c8^R265-L269 (Q99571 whole entry R265L/A266P/L269E): as the sequence (Q99571 whole entry) above, with R265L, A266P, L269E counted along it

As for `Nc1ncnc2c1ncn2[C@@H]1O[C@H](COP(=O)(O)OP(=O)(O)OP(=O)(O)O)[C@@H](O)[C@H]1O` [ATP, Adenosine 5′-triphosphate], the EC50 in experiment [1] is ~10 µM; in experiment [2], ~10 µM; in experiment [3] it was 0.862 µM; in experiment [4] it was 0.389 µM; in experiment [5] (ATP EC50, P2X4-Q308T) it was 0.295 µM; in experiment [5] (ATP pEC50 ± SEM, P2X4-Q308T), 0.275 µM.

Usually EC50 stands for the concentration giving half of the maximal effect.
